Patent US7635572B2, “Methods for conducting assays for enzyme activity on protein microarrays” (Life Technologies Corporation, priority 2004, dated 2009)
Read-outs that look alike come from different tables or passages of the source.

Experiments:
Test in all cases: Further analysis of a plurality of inhibitors and a plurality of kinases on microarray (Example IX, Table 5);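 note: inhibition of each kinase by the inhibitors is given as a qualitative level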;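 for Inhibition level, Homo sapiens in: level 0 none or unclear Level 1 marginal Level 2 substantial inhibition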;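 for Inhibition level, Homo sapiens, o: level 0 none or unclear Level 1 marginal Level 2 substantial inhibition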;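 for Inhibition level, ITK: level 0 none or unclear then 1 little or marginal then 2 substantial inhibition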;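 for Inhibition level, PRKCI: level 0 none or unclear Level 1 marginal Level 2 substantial inhibition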;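 for Inhibition level, TBK1: level 0 no or unclear inhibition to Level 2 substantial inhibition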
Type in all cases: biochemical
[1] = target: plurality of kinases (Table 5) (Homo sapiens, UniProt P07949); conditions: plate B7
[2] = target: T1, plurality of kinases (Table 5) (Homo sapiens, UniProt Q9UHD2); conditions: plate G1; inhibitor 100 uM
T1 sequence (Q9UHD2 1-729): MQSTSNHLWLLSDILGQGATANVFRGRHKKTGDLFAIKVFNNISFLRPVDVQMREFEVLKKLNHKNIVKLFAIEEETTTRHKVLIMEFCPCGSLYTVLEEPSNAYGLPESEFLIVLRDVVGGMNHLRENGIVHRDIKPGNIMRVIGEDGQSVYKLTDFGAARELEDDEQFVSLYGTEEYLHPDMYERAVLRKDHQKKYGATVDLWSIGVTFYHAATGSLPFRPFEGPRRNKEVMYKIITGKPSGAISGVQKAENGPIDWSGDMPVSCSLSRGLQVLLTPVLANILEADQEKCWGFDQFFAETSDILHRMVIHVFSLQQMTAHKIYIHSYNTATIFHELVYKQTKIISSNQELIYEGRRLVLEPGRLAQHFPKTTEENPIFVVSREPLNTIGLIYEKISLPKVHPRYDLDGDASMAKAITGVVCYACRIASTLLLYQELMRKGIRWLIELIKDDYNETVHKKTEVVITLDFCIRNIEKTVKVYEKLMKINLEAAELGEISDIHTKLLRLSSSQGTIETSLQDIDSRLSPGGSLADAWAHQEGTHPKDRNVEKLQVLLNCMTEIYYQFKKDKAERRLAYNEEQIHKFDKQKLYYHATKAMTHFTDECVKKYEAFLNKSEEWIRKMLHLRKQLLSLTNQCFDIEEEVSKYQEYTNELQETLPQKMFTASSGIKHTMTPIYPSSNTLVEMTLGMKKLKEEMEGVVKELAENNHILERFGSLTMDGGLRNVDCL

[3] = target: plurality of kinases (Table 5) (Homo sapiens, UniProt P07948)
[4] = target: T2, plurality of kinases (Table 5) (Homo sapiens, UniProt Q08881); conditions: plate E4; inhibitor 100 uM
T2 sequence (Q08881 1-620): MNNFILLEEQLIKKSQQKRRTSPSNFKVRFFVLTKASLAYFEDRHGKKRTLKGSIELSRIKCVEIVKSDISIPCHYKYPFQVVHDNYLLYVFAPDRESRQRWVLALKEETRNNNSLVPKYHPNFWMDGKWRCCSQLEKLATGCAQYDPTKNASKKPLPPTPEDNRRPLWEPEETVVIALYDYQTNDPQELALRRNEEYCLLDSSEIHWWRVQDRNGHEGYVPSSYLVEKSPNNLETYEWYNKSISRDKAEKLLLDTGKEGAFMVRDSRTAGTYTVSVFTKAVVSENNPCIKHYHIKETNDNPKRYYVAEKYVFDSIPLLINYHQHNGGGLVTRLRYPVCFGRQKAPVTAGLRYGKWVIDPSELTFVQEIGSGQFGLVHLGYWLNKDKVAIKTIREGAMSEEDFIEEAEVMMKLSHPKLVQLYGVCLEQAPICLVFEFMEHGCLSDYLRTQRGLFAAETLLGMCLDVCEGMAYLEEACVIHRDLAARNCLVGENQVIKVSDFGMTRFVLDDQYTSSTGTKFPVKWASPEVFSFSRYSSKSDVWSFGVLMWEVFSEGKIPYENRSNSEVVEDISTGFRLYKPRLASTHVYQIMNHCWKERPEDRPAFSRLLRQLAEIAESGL

[5] = target: T3, plurality of kinases (Table 5) (Homo sapiens, UniProt P41743); conditions: plate A2
T3 sequence (P41743 1-596): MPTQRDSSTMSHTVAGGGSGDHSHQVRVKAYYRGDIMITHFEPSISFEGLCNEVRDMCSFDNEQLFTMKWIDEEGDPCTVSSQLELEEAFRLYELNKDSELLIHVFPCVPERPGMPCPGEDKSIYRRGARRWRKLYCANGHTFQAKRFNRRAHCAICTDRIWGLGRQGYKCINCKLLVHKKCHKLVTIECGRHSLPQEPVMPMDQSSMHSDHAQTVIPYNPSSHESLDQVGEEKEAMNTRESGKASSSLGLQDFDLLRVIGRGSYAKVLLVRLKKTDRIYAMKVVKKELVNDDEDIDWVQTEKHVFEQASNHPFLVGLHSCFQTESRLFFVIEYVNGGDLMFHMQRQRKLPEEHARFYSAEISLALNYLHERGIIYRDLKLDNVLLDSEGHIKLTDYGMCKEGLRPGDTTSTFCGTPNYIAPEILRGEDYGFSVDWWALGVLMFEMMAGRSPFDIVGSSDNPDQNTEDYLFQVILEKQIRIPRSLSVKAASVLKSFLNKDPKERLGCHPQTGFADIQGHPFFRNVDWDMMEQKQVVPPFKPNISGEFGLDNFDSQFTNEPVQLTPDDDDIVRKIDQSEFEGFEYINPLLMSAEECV

[6] = target: plurality of kinases (Table 5) (Homo sapiens, UniProt O75914); conditions: plate D4
[7] = target: plurality of kinases (Table 5) (Homo sapiens, UniProt P06239)
[8] = target: plurality of kinases (Table 5) (Homo sapiens, UniProt P24723); conditions: plate B3
[9] = system: plurality of kinases (Table 5); conditions: for Inhibition level, Homo sapiens c: plate F4; for Inhibition level, Homo sapiens, o: plate F5; for Inhibition level, Homo sapiens, B: plate F7; for Inhibition level, Homo sapiens in: plate F9; for Inhibition level, Homo sapiens p: plate F10
[10] = plate A5, Domain 0, inhibitor 100 uM

Sequence of plurality of kinases (Table 5) (Homo sapiens, UniProt P07948) (P07948 whole entry): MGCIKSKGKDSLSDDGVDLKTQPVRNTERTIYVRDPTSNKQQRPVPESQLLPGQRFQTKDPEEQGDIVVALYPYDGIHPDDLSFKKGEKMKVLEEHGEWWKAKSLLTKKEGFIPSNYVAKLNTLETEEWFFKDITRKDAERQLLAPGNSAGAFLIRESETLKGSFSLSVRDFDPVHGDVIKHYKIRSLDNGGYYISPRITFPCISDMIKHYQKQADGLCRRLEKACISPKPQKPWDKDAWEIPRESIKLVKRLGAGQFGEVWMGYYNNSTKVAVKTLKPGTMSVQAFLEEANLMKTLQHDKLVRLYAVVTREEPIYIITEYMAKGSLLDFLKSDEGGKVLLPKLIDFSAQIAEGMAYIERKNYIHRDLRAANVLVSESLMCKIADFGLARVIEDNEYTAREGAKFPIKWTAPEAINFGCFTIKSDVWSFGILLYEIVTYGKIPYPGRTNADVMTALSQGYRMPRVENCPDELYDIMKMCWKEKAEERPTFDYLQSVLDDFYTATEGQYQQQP
Sequence of plurality of kinases (Table 5) (Homo sapiens, UniProt P06239) (P06239 whole entry): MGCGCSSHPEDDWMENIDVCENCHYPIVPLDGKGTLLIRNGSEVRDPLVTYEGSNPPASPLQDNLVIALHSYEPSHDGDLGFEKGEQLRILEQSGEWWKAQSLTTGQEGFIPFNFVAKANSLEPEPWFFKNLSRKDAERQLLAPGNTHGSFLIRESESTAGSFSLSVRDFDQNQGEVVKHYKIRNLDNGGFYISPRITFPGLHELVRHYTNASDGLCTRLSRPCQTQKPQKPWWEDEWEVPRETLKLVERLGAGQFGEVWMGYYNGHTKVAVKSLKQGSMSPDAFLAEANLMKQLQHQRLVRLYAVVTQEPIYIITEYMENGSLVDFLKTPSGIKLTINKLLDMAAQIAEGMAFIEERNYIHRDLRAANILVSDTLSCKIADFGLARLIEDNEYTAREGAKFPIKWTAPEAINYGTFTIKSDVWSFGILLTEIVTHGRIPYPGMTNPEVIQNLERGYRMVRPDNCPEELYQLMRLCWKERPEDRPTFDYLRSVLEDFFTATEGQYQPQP
Sequence of plurality of kinases (Table 5) (Homo sapiens, UniProt O75914) (O75914 whole entry): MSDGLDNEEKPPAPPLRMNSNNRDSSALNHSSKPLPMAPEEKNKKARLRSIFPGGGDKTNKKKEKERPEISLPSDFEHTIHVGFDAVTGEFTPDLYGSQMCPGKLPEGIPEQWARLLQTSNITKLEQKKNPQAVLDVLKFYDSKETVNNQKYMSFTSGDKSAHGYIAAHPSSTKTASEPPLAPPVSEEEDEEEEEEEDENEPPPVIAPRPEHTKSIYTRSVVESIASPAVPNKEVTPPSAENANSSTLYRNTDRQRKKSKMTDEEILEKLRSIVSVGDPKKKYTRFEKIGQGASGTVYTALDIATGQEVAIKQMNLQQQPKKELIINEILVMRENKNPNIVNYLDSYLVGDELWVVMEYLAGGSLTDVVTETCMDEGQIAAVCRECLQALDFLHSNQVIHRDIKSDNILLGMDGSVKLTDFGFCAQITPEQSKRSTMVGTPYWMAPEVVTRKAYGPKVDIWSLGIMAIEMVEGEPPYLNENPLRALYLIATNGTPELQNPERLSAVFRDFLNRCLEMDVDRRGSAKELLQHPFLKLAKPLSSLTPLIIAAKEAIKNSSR
Sequence of plurality of kinases (Table 5) (Homo sapiens, UniProt P24723) (P24723 whole entry): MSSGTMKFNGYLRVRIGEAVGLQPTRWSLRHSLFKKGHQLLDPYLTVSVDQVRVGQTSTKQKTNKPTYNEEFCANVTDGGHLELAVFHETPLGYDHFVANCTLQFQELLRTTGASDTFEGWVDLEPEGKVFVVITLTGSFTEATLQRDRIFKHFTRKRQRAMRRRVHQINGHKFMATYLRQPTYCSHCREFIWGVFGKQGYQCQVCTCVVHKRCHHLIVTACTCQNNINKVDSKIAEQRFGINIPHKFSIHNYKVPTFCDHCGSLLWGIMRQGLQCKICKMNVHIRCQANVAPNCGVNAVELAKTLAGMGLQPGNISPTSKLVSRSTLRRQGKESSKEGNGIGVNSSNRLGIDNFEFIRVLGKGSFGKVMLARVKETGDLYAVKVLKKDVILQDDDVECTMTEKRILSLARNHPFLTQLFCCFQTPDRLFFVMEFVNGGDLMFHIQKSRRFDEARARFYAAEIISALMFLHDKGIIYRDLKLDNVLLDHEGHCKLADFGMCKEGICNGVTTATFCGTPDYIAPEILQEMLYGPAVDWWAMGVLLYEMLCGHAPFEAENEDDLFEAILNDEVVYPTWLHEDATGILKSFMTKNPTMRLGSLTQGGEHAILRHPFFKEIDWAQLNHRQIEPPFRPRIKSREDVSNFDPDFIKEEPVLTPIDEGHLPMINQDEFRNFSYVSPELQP
Sequence of plurality of kinases (Table 5) (Homo sapiens, UniProt P07949) (P07949 29-1114): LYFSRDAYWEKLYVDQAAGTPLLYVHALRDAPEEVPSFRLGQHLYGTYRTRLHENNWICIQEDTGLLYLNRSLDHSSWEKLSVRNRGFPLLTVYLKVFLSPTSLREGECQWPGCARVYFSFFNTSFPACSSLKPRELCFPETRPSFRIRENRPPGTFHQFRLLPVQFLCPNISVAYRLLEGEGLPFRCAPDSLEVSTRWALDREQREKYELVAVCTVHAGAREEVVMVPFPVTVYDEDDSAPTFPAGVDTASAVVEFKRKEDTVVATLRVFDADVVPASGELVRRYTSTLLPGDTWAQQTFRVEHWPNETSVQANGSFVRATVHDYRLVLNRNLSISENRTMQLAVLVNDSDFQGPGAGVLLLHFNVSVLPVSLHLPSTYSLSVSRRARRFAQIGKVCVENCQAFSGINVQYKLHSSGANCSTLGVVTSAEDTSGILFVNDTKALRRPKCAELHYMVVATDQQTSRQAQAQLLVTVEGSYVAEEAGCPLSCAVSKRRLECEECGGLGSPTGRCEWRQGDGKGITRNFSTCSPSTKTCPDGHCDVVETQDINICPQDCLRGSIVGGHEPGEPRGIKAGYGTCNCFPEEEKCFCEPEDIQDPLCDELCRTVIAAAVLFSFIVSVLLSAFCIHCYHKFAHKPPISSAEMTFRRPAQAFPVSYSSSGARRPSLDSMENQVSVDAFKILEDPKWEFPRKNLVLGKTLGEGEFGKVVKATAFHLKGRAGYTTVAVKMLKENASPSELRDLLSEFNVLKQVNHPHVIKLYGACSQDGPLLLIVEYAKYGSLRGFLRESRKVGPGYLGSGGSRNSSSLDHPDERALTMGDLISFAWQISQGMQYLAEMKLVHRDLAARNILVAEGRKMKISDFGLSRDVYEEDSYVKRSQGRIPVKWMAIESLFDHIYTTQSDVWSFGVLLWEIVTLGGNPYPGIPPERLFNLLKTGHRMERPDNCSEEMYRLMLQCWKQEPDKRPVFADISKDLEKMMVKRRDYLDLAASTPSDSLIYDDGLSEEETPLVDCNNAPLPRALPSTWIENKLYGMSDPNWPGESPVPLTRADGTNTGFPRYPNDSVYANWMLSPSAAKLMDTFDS

Compound | Inhibition level, RET ([1]; inhibitor 100 uM) | Inhibition level, TBK1 [2] | Inhibition level, LYN [3, 10] | Inhibition level, ITK [4] | Inhibition level, PRKCI ([5]; inhibitor 100 uM) | Inhibition level, PAK3 ([6]; inhibitor 100 uM) | Inhibition level, LCK ([7]; plate A6, inhibitor 100 uM) | Inhibition level, PRKCH ([8]; inhibitor 100 uM) | Inhibition level, Homo sapiens, S ([9]; plate E9, inhibitor 100 uM) | Inhibition level, Homo sapiens, s ([9]; plate E11, inhibitor 100 uM) | Inhibition level, Homo sapiens, s ([9]; plate F3, inhibitor 100 uM) | Inhibition level, Homo sapiens c ([9]; inhibitor 100 uM) | Inhibition level, Homo sapiens, o ([9]; inhibitor 100 uM) | Inhibition level, Homo sapiens, S ([9]; plate F6, inhibitor 100 uM) | Inhibition level, Homo sapiens, B ([9]; inhibitor 100 uM) | Inhibition level, Homo sapiens, s ([9]; plate F8, inhibitor 100 uM) | Inhibition level, Homo sapiens in ([9]; inhibitor 100 uM) | Inhibition level, Homo sapiens p ([9]; inhibitor 100 uM) | also measured
N#C/C(=C/c1ccc(O)c(O)c1)C(=O)NCc1ccccc1 [AG 490] | 2 | 2 | 2 | 1 | 2 | 1 | 2 | 2 | 0 | 2 | 0 | 2 | 2 | 0 | 2 | 0 | 1 | 2 | –
COc1cc2ncnc(Nc3cccc(Cl)c3)c2cc1OC [AG 1478] | 2 | 2 | 2 | 1 | 0 | 2 | – | 0 | 0 | 2 | 2 | 2 | 2 | 1 | 2 | 0 | 2 | 2 | Inhibition level, LCK [7]: 2
O=c1c(-c2ccc(O)cc2)coc2cc(O)cc(O)c12 [Genistein] | 2 | 2 | 2 | 2 | 2 | 2 | 2 | 2 | 2 | 2 | 1 | 2 | 2 | 0 | 2 | 0 | 1 | 2 | Inhibition level, RET ([1]; Genistein, conc. not given): 0; Inhibition level, LYN ([3]; plate A5, Domain 0, Genistein <3.7 mM): 2; Inhibition level, PRKCI ([5]; Genistein <3.7 mM): 0; Inhibition level, PAK3 ([6]; Genistein, conc. not given): 0; Inhibition level, LCK ([7]; plate A6, Genistein <3.7 mM): 0; Inhibition level, PRKCH ([8]; Genistein, conc. not given): 0; Inhibition level, Homo sapiens, s ([9]; plate F3, Genistein, conc. not given): 0; Inhibition level, Homo sapiens, o ([9]; Genistein, conc. not given): 0; Inhibition level, Homo sapiens, S ([9]; plate F6, Genistein, conc. not given): 0; Inhibition level, Homo sapiens, B ([9]; Genistein, conc. not given): 0; Inhibition level, Homo sapiens, s ([9]; plate F8, Genistein, conc. not given): 0; Inhibition level, Homo sapiens in ([9]; Genistein, conc. not given): 0; Inhibition level, Homo sapiens p ([9]; Genistein, conc. not given): 2
O=S(=O)(NCCNC/C=C/c1ccc(Br)cc1)c1cccc2cnccc12 [H-89] | 0 | 2 | 2 | 1 | 2 | 2 | 2 | 2 | 2 | 1 | 2 | 2 | 1 | 2 | 0 | 1 | 2 | 2 | –
CC(C)(C)n1nc(-c2ccc(Cl)cc2)c2c(N)ncnc21 [PP2] | 2 | 1 | 2 | 2 | 1 | 2 | – | 2 | 2 | 2 | 2 | 2 | 2 | 2 | 2 | 0 | 2 | 2 | –
O=c1c(O)c(-c2ccc(O)c(O)c2)oc2cc(O)cc(O)c12 [Quercetin] | – | 0 | 2 | 0 | 0 | 2 | – | 0 | – | – | – | – | – | – | – | – | – | – | –
CN[C@@H]1C[C@H]2O[C@@](C)([C@@H]1OC)n1c3ccccc3c3c4c(c5c6ccccc6n2c5c31)C(=O)NC4 [Staurosporine] | – | – | – | – | – | – | – | – | – | – | – | – | – | – | – | – | – | – | Inhibition level, LYN [3]: 0
